According to PubChem BioAssay AID1259411 (Chemical Carcinogenesis Research Information System (CCRIS), 2018):
Activity calls are given as the source filed them. The rule behind the calls is not given here.

System: rodent carcinogenicity bioassays, tumor incidence
Assay: CCRIS carcinogenicity studies
Settings: Dose: 0, Dose: 0
In short: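 NCI-built, expert-reviewed records of carcinogenicity and related test outcomes (mutagenicity, tumor promotion/inhibition) compiled from published and report sources, historical span 1985-2011, not updated.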

## OC[P+](CO)(CO)CO
Species: MOUSE, Strain/Sex: B6C3F1/FEMALE, Route: GAVAGE, 5, 10 MG/KG IN DISTILLED WATER 5 D/WK FOR 103 WK, 5, 10 MG/KG IN DISTILLED WATER 5 D/WK FOR 103 WK
  carcinogen call: inactive; negative
Species: MOUSE, Strain/Sex: B6C3F1/FEMALE, Route: GAVAGE, 15, 30 MG/KG IN DISTILLED WATER 5 D/WK FOR 103 WK, 15, 30 MG/KG IN DISTILLED WATER 5 D/WK FOR 103 WK
  carcinogen call: inactive; negative
Species: MOUSE, Strain/Sex: B6C3F1/MALE, Route: GAVAGE, 5, 10 MG/KG IN DISTILLED WATER 5 D/WK FOR 103 WK, 5, 10 MG/KG IN DISTILLED WATER 5 D/WK FOR 103 WK
  carcinogen call: inactive; negative
Species: MOUSE, Strain/Sex: B6C3F1/MALE, Route: GAVAGE, 7.5, 15 MG/KG IN DISTILLED WATER 5 D/WK FOR 103 WK, 7.5, 15 MG/KG IN DISTILLED WATER 5 D/WK FOR 103 WK
  carcinogen call: inactive; negative
Species: RAT, Strain/Sex: F344/FEMALE, Route: GAVAGE, 3.75, 7.5 MG/KG IN DISTILLED WATER 5 D/WK FOR 103 WK, 3.75, 7.5 MG/KG IN DISTILLED WATER 5 D/WK FOR 103 WK
  carcinogen call: inactive; negative
Species: RAT, Strain/Sex: F344/FEMALE, Route: GAVAGE, 5, 10 MG/KG IN DISTILLED WATER 5 D/WK FOR 104 WK, 5, 10 MG/KG IN DISTILLED WATER 5 D/WK FOR 104 WK
  carcinogen call: inactive; negative
Species: RAT, Strain/Sex: F344/MALE, Route: GAVAGE, 3.75, 7.5 MG/KG IN DISTILLED WATER 5 D/WK FOR 103 WK, 3.75, 7.5 MG/KG IN DISTILLED WATER 5 D/WK FOR 103 WK
  carcinogen call: inactive; negative
Species: RAT, Strain/Sex: F344/MALE, Route: GAVAGE, 5, 10 MG/KG IN DISTILLED WATER 5 D/WK FOR 104 WK, 5, 10 MG/KG IN DISTILLED WATER 5 D/WK FOR 104 WK
  carcinogen call: inactive; negative

## C=CCOC(Cn1ccnc1)c1ccc(Cl)cc1Cl (configuration not stated)
Species: Mouse, Strain/Sex: Swiss/Female (50/Group), Route: Oral, 50, 200, 600 ppm 93% imazalil in diet in 50:50 Aerosil:corn starch for 2 yr, study duration 2 yr, 50, 200, 600 ppm 93% imazalil in diet in 50:50 Aerosil:corn starch for 2 yr, study duration 2 yr, Tumor Site: Type of Lesion: Liver: hepatocytic neoplasms
  carcinogen call: active; positive
Species: Mouse, Strain/Sex: Swiss/Male (50/Group), Route: Oral, 50, 200, 600 ppm 93% imazalil in diet in 50:50 Aerosil:corn starch for 2 yr, study duration 2 yr, 50, 200, 600 ppm 93% imazalil in diet in 50:50 Aerosil:corn starch for 2 yr, study duration 2 yr, Tumor Site: Type of Lesion: Liver: hepatocytic neoplasms
  carcinogen call: active; positive
Species: Rat, Strain/Sex: Cpb:WU/Female (20/Group), Route: Oral, 25, 100, 400 ppm 98.1% imazalil in diet for 18 mo, study duration 18 mo, 25, 100, 400 ppm 98.1% imazalil in diet for 18 mo, study duration 18 mo
  carcinogen call: inactive; negative
Species: Rat, Strain/Sex: Cpb:WU/Male (20/Group), Route: Oral, 25, 100, 400 ppm 98.1% imazalil in diet for 18 mo, study duration 18 mo, 25, 100, 400 ppm 98.1% imazalil in diet for 18 mo, study duration 18 mo
  carcinogen call: inactive; negative

## O[C@H]1[C@H]2O[C@H]2c2c(ccc3cc4ccc5ccccc5c4nc23)[C@@H]1O
Species: MOUSE, Strain/Sex: CD-1/FEMALE, Route: INTRAPERITONEAL, 28 NMOL (TOTAL DOSE) ADMINISTERED AS 1/7 OF DOSE WITHIN 24 HR AFTER BIRTH, 2/7 OF DOSE AT 8 D OLD, 4/7 OF DOSE AT 15
  carcinogen call: inactive; negative
Species: MOUSE, Strain/Sex: CD-1/FEMALE, Route: INTRAPERITONEAL, 175 NMOL (TOTAL DOSE) ADMINISTERED AS 1/7 OF DOSE WITHIN 24 HR AFTER BIRTH, 2/7 OF DOSE AT 8 D OLD, 4/7 OF DOSE AT 15
  carcinogen call: inactive; negative
Species: MOUSE, Strain/Sex: CD-1/MALE, Route: INTRAPERITONEAL, 28 NMOL (TOTAL DOSE) ADMINISTERED AS 1/7 OF DOSE WITHIN 24 HR AFTER BIRTH, 2/7 OF DOSE AT 8 D OLD, 4/7 OF DOSE AT 15
  carcinogen call: inactive; negative
Species: MOUSE, Strain/Sex: CD-1/MALE, Route: INTRAPERITONEAL, 175 NMOL (TOTAL DOSE) ADMINISTERED AS 1/7 OF DOSE WITHIN 24 HR AFTER BIRTH, 2/7 OF DOSE AT 8 D OLD, 4/7 OF DOSE AT 15
  carcinogen call: inactive; negative

## ClCC(Br)CBr (configuration not stated)
Species: MOUSE, Strain/Sex: B6C3F1/FEMALE, Route: GAVAGE, 110, 209 MG/KG, TWA, 110, 209 MG/KG, TWA, Tumor Site: Type of Lesion: STOMACH: SQUAMOUS CELL CARCINOMA
  carcinogen call: active; positive
Species: MOUSE, Strain/Sex: B6C3F1/FEMALE, Route: INHALATION, 0.6, 3.0 PPM 6 HR/D, 5 D/WK FOR 76-103 WK, 0.6, 3.0 PPM 6 HR/D, 5 D/WK FOR 76-103 WK, Tumor Site: Type of Lesion: NASAL CAVITY: CARCINOMA (NOS), SQUAMOUS CELL CARCINOMA, SQUAMOUS CELL CARCINOMA OR SQUAMOUS CELL PAPILLOMA, ADENOCARCINO
  carcinogen call: active; positive
Species: MOUSE, Strain/Sex: B6C3F1/MALE, Route: GAVAGE, 114, 219 MG/KG, TWA, 114, 219 MG/KG, TWA, Tumor Site: Type of Lesion: STOMACH: SQUAMOUS CELL CARCINOMA
  carcinogen call: active; positive
Species: MOUSE, Strain/Sex: B6C3F1/MALE, Route: INHALATION, 0.6, 3.0 PPM 6 HR/D, 5 D/WK FOR 76 WK, 0.6, 3.0 PPM 6 HR/D, 5 D/WK FOR 76 WK, Tumor Site: Type of Lesion: NASAL CAVITY: CARCINOMA (NOS), SQUAMOUS CELL CARCINOMA, ADENOMATOUS POLYP (NOS), LUNG: ALVEOLAR/BRONCHIOLAR ADENOMA, ALV
  carcinogen call: active; positive
Species: RAT, Strain/Sex: F344/FEMALE, Route: INHALATION, 0.6, 3.0 PPM 6 HR/D, 5 D/WK FOR 84-103 WK, 0.6, 3.0 PPM 6 HR/D, 5 D/WK FOR 84-103 WK, Tumor Site: Type of Lesion: NASAL CAVITY: ADENOMATOUS POLYP (NOS), ADENOMA (NOS), SQUAMOUS CELL PAPILLOMA, CARCINOMA (NOS), ADENOCARCINOMA (NOS), NA
  carcinogen call: active; positive
Species: RAT, Strain/Sex: F344/MALE, Route: INHALATION, 0.6, 3.0 PPM 6 HR/D, 5 D/WK FOR 84-103 WK, 0.6, 3.0 PPM 6 HR/D, 5 D/WK FOR 84-103 WK, Tumor Site: Type of Lesion: NASAL CAVITY: ADENOMATOUS POLYP (NOS), ADENOMA (NOS), SQUAMOUS CELL PAPILLOMA, SQUAMOUS CELL CARCINOMA, CARCINOMA (NOS)
  carcinogen call: active; positive
Species: RAT, Strain/Sex: OSBORNE-MENDEL/FEMALE, Route: GAVAGE, 15, 29 MG/KG, TWA, 15, 29 MG/KG, TWA, Tumor Site: Type of Lesion: STOMACH: SQUAMOUS CELL CARCINOMA, SQUAMOUS CELL PAPILLOMA, MAMMARY GLAND: ADENOCARCINOMA
  carcinogen call: active; positive
Species: RAT, Strain/Sex: OSBORNE-MENDEL/MALE, Route: GAVAGE, 15, 29 MG/KG, TWA, 15, 29 MG/KG, TWA, Tumor Site: Type of Lesion: STOMACH: SQUAMOUS CELL CARCINOMA, MULTIPLE SITES: HEMANGIOSARCOMA OR HEMANGIOMA
  carcinogen call: active; positive

## CC(=O)O
Species: MOUSE, Strain/Sex: SWISS/FEMALE, Route: ORAL, 5 PPM IN DRINKING WATER FOR DURATION OF STUDY (STUDY DURATION: LIFE SPAN)
  carcinogen call: inactive; negative
Species: MOUSE, Strain/Sex: SWISS/MALE, Route: ORAL, 5 PPM IN DRINKING WATER FOR DURATION OF STUDY (STUDY DURATION: LIFE SPAN)
  carcinogen call: inactive; negative

## O=[N+]([O-])c1cc(O)c2ccc3cccc4ccc1c2c34
Species: RAT, Strain/Sex: STRAIN-CD/FEMALE, Route: SUBCUTANEOUS, 63 UMOL (TOTAL DOSE) ADMINISTERED OVER 8 WK BEGINNING WITHIN 24 HR OF BIRTH (STUDY DURATION: 86 WK)
  carcinogen call: inactive; negative
